Source: ChEMBL document CHEMBL1201862, “PubChem BioAssay data set” (2004)
Where a name gives a salt, the structure may show the parent alone. Active and inactive are the calls of the source.

Legend:
[1] = blockers of HIV-1 envelope-mediated cell-cell fusion – cherry-pick, dose response (AID 652057); assay type: functional, cell-based
[2] = blockers of HIV-1 ZM109 envelope-driven cell-cell fusion – HeLa effector, CEM target cells, luciferase, cherry-pick, dose response (AID 652058); assay type: functional, cell-based;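 further: luciferase signal from HIV-1 Env mediated cell-cell fusion of effector and target cells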
[3] = off-target signal loss in HeLa-CEM21 co-culture – HeLa F-luc CTL cells, cherry-picked, counter-screen for HIV-1 Env fusion inhibitor project, dose response (AID 652040); assay type: functional, cell-based;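 further: potency for signal decrease marking cytotoxic or nonspecific inhibition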
[4] = HIV-1 AD8 envelope cell-cell fusion blockers – cherry-pick, dose response (AID 652062); assay type: functional, cell-based;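 further: luciferase signal from cell-cell fusion driven by HIV-1 clade B AD8 Env; potency is for inhibitors of fusion seen as a drop in luminescence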
[5] = target: T1, High affinity choline transporter 1 (Homo sapiens, UniProt Q9GZV3); experiment: human choline transporter blockers, potency – cell-based, 5-point CRC, membrane potential dye, dose response (AID 504840); assay type: functional
T1 sequence (Q9GZV3 whole entry): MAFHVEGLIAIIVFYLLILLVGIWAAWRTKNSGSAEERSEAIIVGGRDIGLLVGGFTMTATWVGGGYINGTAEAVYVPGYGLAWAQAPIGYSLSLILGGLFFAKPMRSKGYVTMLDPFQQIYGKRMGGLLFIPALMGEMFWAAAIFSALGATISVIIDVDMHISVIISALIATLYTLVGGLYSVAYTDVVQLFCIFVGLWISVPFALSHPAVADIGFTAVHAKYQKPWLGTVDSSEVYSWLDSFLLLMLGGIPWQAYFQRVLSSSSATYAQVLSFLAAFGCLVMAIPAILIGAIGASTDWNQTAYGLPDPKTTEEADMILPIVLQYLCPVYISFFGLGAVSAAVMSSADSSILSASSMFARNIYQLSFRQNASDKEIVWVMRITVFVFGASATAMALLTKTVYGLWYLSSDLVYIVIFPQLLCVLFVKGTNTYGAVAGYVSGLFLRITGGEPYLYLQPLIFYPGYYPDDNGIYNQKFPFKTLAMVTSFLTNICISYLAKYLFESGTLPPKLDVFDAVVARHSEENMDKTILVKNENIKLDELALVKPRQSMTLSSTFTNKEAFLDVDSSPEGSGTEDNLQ

Streptokinase A = target: T2, Streptokinase A (Streptococcus pyogenes serotype M1, UniProt P10520); experiment: viability-normalized secreted streptokinase activity reduction – plasminogen activation absorbance, OD405, dose response (AID 1914); assay type: functional, Streptococcus pyogenes M1 GAS;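 further: secreted streptokinase activity via plasminogen activation per viability signal from cell pellet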
T2 sequence (P10520 whole entry): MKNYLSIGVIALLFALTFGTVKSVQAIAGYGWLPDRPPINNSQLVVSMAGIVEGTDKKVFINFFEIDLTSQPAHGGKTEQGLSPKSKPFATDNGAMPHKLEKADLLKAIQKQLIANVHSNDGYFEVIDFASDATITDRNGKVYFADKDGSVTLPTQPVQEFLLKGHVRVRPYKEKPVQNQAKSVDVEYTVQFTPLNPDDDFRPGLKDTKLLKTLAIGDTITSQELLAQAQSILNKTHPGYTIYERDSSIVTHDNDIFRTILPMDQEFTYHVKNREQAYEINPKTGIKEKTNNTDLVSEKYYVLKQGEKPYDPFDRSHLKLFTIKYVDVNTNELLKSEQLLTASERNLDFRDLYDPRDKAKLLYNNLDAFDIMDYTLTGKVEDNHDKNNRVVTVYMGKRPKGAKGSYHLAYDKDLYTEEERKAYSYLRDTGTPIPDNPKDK

Prothrombin = Prothrombin (Homo sapiens, UniProt P00734); experiment: Thrombin 1536 HTS Dose Response Confirmation. [Related pubchem assays: 1046 (Thrombin 1536 HTS; hits were confirmed in this assay)]; assay type: functional
Streptococcus = experiment: GAS UMAA2166 growth inhibition – luminescence, BacTiterGlo, counter-screen for streptokinase expression inhibitor project, dose response (AID 1915); assay type: functional, organism-based;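 further: potency for reduction of bacterial viability or growth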
[6] = target: Peroxisome proliferator-activated receptor gamma/Nuclear receptor coactivator 2 (Homo sapiens, UniProt P37231); assay type: functional;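 further: agonist potency for raising coactivator recruitment to the receptor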
Peroxisome proliferator-activated receptor gamma/Nuclear receptor coactivator 2, sequence (P37231 whole entry): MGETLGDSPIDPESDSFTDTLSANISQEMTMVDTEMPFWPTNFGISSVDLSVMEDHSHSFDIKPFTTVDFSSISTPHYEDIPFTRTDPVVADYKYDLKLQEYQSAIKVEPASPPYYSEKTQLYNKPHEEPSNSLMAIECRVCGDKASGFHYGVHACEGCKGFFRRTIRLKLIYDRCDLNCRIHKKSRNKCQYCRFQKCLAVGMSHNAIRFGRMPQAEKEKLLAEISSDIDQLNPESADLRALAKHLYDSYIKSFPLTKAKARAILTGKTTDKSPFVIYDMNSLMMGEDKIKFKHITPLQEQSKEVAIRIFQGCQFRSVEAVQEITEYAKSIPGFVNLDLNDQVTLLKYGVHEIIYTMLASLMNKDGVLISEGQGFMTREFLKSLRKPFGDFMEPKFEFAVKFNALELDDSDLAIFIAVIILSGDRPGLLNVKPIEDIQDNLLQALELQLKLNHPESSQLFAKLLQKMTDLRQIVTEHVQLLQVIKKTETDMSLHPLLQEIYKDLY
Peroxisome proliferator-activated receptor gamma/Nuclear receptor coactivator 2, sequence (Q15596 whole entry, further chain): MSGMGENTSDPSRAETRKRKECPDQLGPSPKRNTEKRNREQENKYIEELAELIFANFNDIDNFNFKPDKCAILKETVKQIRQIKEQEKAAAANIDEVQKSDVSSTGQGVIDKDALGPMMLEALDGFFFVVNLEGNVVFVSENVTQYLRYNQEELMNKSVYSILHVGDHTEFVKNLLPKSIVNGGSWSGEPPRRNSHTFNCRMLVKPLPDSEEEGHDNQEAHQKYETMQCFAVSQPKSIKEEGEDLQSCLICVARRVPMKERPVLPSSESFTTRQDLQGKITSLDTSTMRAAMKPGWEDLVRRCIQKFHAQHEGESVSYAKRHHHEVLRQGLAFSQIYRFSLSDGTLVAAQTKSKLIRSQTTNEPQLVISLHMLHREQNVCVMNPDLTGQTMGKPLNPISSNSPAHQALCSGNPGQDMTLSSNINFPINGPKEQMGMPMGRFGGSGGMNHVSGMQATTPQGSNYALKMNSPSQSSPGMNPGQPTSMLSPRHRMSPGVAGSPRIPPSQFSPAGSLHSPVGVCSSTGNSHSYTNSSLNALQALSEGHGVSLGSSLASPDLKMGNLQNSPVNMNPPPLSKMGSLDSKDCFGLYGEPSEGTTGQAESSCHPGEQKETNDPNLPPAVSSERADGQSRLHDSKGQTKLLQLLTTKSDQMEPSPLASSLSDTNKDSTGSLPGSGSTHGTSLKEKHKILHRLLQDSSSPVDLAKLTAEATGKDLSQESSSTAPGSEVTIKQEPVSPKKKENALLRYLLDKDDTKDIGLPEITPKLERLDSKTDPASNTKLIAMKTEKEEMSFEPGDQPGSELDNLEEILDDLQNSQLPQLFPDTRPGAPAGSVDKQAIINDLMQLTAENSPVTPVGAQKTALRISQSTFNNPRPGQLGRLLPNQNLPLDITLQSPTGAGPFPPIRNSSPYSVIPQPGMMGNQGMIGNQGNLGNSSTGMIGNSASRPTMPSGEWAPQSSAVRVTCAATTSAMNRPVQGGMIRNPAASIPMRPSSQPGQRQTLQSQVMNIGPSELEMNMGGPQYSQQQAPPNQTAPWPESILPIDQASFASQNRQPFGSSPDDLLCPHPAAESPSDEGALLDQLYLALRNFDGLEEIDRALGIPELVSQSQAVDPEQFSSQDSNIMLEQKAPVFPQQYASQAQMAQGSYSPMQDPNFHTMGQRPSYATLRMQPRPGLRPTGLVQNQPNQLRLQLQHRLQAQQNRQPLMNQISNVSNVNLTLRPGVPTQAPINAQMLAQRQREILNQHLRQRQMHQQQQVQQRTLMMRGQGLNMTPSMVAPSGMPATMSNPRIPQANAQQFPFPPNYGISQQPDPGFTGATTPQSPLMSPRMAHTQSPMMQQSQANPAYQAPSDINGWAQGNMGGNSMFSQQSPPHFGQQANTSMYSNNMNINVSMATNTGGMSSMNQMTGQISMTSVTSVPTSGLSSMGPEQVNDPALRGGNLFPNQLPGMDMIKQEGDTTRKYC

[7] = target: Peroxisome proliferator-activated receptor gamma/Nuclear receptor coactivator 1 (Homo sapiens, UniProt P37231); assay type: functional;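 further: agonist potency as compounds enhance coactivator SRC-1 recruitment to PPARgamma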
[8] = target: Peroxisome proliferator-activated receptor gamma/Nuclear receptor coactivator 3 (Homo sapiens, UniProt P37231); assay type: functional;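 further: agonist potency for raising coactivator recruitment to the receptor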
Peroxisome proliferator-activated receptor gamma/Nuclear receptor coactivator 3, sequence (P37231 whole entry): as the sequence (P37231 whole entry) above
Peroxisome proliferator-activated receptor gamma/Nuclear receptor coactivator 3, sequence (Q9Y6Q9 whole entry, further chain): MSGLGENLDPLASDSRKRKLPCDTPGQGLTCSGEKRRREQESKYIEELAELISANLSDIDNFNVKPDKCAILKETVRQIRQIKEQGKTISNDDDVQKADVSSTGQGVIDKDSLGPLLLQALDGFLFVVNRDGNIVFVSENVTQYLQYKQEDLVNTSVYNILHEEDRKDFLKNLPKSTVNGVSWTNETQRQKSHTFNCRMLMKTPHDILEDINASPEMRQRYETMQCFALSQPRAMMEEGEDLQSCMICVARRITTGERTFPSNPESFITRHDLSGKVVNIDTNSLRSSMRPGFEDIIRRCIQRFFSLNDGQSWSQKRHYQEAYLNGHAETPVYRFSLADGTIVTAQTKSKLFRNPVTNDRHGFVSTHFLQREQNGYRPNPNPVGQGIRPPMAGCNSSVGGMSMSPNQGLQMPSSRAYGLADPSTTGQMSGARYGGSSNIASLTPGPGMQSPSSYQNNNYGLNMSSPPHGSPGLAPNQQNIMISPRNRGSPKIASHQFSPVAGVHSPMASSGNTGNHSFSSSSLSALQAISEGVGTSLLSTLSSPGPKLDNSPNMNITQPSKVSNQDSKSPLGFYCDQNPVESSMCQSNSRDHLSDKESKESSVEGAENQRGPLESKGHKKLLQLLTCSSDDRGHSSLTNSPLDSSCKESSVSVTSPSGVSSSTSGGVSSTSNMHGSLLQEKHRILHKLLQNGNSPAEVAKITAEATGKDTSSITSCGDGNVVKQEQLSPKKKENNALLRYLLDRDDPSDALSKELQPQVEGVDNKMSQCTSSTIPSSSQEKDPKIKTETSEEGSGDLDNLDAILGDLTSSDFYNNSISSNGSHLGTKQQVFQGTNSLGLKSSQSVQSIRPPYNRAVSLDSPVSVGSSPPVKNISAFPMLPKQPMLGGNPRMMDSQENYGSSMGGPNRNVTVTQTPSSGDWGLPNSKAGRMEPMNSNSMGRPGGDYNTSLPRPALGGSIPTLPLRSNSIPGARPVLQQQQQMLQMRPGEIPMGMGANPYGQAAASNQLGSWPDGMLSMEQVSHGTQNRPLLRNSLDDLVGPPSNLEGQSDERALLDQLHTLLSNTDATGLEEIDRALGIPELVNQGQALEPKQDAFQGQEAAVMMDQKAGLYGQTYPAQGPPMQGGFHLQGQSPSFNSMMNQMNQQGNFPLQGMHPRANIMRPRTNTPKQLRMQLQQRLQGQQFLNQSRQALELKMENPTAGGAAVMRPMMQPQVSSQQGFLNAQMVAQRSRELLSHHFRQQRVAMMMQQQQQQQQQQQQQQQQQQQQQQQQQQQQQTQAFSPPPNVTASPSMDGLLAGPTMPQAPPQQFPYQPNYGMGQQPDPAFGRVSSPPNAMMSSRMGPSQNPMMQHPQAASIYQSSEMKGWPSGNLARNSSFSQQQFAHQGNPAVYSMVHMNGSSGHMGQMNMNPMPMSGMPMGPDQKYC

Cytochrome P450 3A4 = Cytochrome P450 3A4 (Homo sapiens, UniProt P08684);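 further: CYP3A4 tested as one member of a cytochrome P450 panel screen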
Cytochrome P450 3A4, sequence (P08684 whole entry): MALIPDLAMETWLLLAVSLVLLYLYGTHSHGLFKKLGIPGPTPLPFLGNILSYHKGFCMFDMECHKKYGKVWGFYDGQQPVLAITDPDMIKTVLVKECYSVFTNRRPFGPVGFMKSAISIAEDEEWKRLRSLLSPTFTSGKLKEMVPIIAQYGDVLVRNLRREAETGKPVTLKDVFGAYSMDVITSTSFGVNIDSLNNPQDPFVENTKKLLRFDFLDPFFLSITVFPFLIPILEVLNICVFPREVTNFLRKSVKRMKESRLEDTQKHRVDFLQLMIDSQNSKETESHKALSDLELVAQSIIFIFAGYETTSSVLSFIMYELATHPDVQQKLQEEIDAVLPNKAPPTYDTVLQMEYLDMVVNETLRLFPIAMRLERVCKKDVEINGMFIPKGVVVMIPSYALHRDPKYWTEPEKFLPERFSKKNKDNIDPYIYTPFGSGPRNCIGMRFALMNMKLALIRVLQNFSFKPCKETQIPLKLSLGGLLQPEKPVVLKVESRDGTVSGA

Cytochrome P450 2C9 = Cytochrome P450 2C9 (Homo sapiens, UniProt P11712)
[9] = target: T3, Ubiquitin-conjugating enzyme E2 N (Homo sapiens, UniProt P61088); assay type: functional;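 further: Dose-response confirmation in a TR-FRET assay detecting UBC13-driven polyubiquitin chain formation, inhibition measured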
T3 sequence (P61088 whole entry): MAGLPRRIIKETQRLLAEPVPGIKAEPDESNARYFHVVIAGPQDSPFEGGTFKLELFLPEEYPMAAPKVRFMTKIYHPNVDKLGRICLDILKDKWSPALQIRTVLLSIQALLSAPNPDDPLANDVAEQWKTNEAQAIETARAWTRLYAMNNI

Nonstructural protein 1 = Nonstructural protein 1 (Influenza A virus, UniProt Q194T2); assay type: functional, Influenza A virus (A/California/07/2009(H1N1))
Cytochrome P450 2D6 = Cytochrome P450 2D6 (Homo sapiens, UniProt P10635);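 further: CYP2D6 member of a cytochrome P450 panel assay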
Cytochrome P450 2D6, sequence (P10635 whole entry): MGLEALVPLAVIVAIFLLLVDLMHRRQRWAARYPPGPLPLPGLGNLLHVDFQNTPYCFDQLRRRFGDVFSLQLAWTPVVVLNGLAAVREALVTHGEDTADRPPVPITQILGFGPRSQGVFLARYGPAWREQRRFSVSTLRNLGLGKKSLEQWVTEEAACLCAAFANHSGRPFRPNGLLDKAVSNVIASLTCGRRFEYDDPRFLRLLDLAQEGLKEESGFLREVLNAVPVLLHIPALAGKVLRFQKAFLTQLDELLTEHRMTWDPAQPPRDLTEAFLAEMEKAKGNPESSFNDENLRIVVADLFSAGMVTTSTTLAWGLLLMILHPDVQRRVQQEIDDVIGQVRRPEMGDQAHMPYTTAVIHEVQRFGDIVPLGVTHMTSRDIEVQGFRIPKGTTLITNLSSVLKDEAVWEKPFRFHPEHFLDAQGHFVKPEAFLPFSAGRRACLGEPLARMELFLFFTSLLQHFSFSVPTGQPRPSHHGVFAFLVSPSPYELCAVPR

[10] = blockers of bursicon-stimulated LGR2 cAMP reporter – cell-based, HEK293, CRE-luciferase reporter, cherry pick, set 2, dose response (AID 743343); assay type: functional;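 further: transfected cells were stimulated with diluted bursicon conditioned medium after compound addition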
[11] = blockade of melanocortin 4 receptor signaling – cell-based, plate reader, cherry pick, counter-screen for LGR2 antagonist project, dose response (AID 743444); assay type: functional;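 further: transfected HEK 293 cells stimulated with alpha-MSH peptide; potency of inhibitors of the alpha-MSH evoked signal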
[12] = microbe, parasite or virus in culture; assay type: functional; settings: Mycobacterium tuberculosis
[13] = Luminescence Cell-Based Dose Retest to Confirm Inhibitors of Cancer Stem Cells. [Related pubchem assays (depositor defined):AID2717, AID2721]; assay type: functional; settings: Homo sapiens
[14] = target: Heat shock protein HSP 90-alpha (Homo sapiens, UniProt P07900); assay type: functional, organism-based
Cytochrome P450 1A2 = target: T4, Cytochrome P450 1A2 (Homo sapiens, UniProt P05177);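 further: PubChem cytochrome P450 panel assay, CYP1A2 panel member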
T4 sequence (P05177 whole entry): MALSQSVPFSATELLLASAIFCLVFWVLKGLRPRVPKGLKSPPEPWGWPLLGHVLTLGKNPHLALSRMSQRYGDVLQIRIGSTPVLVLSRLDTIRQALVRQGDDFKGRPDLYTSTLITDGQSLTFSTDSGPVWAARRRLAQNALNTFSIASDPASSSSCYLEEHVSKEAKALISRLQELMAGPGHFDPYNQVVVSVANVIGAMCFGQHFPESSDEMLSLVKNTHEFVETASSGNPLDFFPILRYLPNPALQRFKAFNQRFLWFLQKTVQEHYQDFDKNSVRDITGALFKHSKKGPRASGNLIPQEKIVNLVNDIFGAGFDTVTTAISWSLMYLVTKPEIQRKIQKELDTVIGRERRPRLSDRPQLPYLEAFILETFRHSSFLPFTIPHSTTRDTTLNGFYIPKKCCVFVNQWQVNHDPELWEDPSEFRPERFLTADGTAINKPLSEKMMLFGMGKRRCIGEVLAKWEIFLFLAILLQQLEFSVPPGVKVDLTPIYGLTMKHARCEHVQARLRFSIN

Large T antigen = Large T antigen (Simian virus 40, UniProt P03070); assay type: functional, Betapolyomavirus macacae;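 further: Confirmatory-stage PubChem screen for compounds that inhibit SV40 T antigen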
[15] = target: T5, Corticotropin-releasing factor receptor 2/Corticotropin-releasing factor-binding protein (Homo sapiens, UniProt P24387+Q13324); experiment: Dose Response confirmation of uHTS hits for small molecule antagonists of the CRF-binding protein and CRF-R2 receptor complex.; assay type: functional; settings: read-out: IC50_Mean
T5 sequence (Q13324 whole entry): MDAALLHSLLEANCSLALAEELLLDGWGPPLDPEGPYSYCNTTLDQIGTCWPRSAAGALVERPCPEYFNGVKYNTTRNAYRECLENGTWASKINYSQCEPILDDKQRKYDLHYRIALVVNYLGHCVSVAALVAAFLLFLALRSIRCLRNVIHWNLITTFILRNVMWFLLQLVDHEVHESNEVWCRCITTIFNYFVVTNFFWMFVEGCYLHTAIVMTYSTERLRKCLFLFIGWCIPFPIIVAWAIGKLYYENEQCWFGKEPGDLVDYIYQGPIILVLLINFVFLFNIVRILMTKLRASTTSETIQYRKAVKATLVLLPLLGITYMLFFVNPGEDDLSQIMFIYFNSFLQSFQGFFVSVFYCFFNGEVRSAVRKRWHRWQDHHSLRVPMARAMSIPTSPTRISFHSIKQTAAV
T5 sequence (P24387 whole entry): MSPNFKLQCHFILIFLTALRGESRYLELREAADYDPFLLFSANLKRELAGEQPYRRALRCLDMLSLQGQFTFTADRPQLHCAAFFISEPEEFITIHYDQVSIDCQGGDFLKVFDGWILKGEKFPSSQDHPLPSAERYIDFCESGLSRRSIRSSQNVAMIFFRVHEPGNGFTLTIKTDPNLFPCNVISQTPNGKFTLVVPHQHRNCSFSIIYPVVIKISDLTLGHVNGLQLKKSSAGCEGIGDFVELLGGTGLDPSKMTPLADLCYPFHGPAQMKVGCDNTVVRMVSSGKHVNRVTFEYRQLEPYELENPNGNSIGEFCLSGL

[16] = target: T5, Corticotropin-releasing factor receptor 2/Corticotropin-releasing factor-binding protein; experiment: activators of CRF receptor 2 with binding protein – uHTS hits, confirmation (AID 602473); assay type: functional; settings: read-out: EC50_Mean

CCN(CC(=O)Nc1cc(Cl)ccc1C)C(=O)c1ccc(=O)n(Cc2ccccc2)n1
AC50 [1]: 4.27 µM (active)
AC50 [2]: 3.23 µM (active)
AC50 [3]: 5.05 µM (active)
AC50 [4]: 9.4 µM (active)

Cc1ccc(C(=O)NCC(=O)NCCCc2ccccc2)cc1
IC50 [5]: 16.6 µM (active)

CCOC(=O)c1c(-c2ccc(C)cc2)csc1NC(=O)CCN1CCOCC1
EC50 (Streptokinase A): 65.4 µM (active)
IC50 (Prothrombin): > 50 µM (not active)
EC50 (Streptococcus): > 150 µM (not active)

Cc1cccc2cc(CN(Cc3ccc4c(c3)OCO4)Cc3nnnn3C3CCCC3)c(=O)[nH]c12
EC50 [6]: > 79.4 µM (not active)
EC50 [7]: > 79.4 µM (not active)
EC50 [8]: > 79.4 µM (not active)

C[C@@]12CC[C@@H]3[C@H](CCC4=CC(=O)CC[C@]43C)[C@@H]1CC[C@@H]2C(=O)Cn1cnc2c(S)ncnc21
AC50 (Cytochrome P450 3A4): inconclusive

O=C(Nc1cnccn1)c1cccc(C(F)(F)F)c1
EC50 [6]: > 79.4 µM (not active)
EC50 [7]: > 79.4 µM (not active)
EC50 [8]: > 79.4 µM (not active)

CC(NC(=O)c1cc(S(=O)(=O)N(C)C)ccc1N1CCCC1)C1CC2CCC1C2 (centres undefined)
AC50 [1]: 2.74 µM (active)
AC50 [2]: 4.03 µM (active)
AC50 [3]: 4.89 µM (active)
AC50 [4]: 7.68 µM (active)

CCOc1ccc(OCC)c(NC(=O)C2CCCN(S(=O)(=O)c3c[nH]cn3)C2)c1 (centres undefined)
IC50 (Prothrombin): > 50 µM (not active)

Cc1nonc1NC(=O)CSc1ccc(-c2ccccc2)nn1
IC50 [5]: 14.5 µM (active)

Cc1ccc(NCC(O)C(O)C(O)CO)c(N=Nc2ccccc2)c1C (centres undefined)
IC50 (Prothrombin): > 50 µM (not active)

CC(=O)OCC(=O)[C@]12OC(C)(C)O[C@@H]1C[C@H]1[C@H]3CC=C4C[C@@H](O)CC[C@]4(C)[C@H]3CC[C@]12C
AC50 (Cytochrome P450 2C9): 7.94 µM (inconclusive)
AC50 (Cytochrome P450 3A4): inconclusive

CCN=C(S)NNC(=O)c1ccccn1
IC50 [9]: > 20 µM (inactive)
IC50 (Nonstructural protein 1): 1.55 µM (active)

Cc1ccc(-n2c(C)nc3c(cnn3-c3ccc(F)cc3)c2=O)cc1C
AC50 (Cytochrome P450 2D6): 15.8 µM (inconclusive)
AC50 (Cytochrome P450 2C9): 15.8 µM (inconclusive)
AC50 (Cytochrome P450 3A4): inconclusive

CC(C)NC(=O)N1CCC2(CC1)CCN(C(=O)c1cccc(F)c1)CC2
AC50 (Cytochrome P450 3A4): inconclusive

COC(=O)c1nnc(NC(=O)c2ccc(Br)cc2)[nH]1
IC50 (Prothrombin): 0.0137 µM (active)

COc1cccc(-c2cc(C(=O)N3CCCCCC3)no2)c1
AC50 [10]: 10.3 µM (active)
AC50 [11]: 16.7 µM (active)

CN1CC(c2ccccc2)C2(COc3ccccc3C2=O)C12C(=O)Nc1ccccc12 (centres undefined)
AC50 [1]: 2.66 µM (active)
AC50 [2]: 3.46 µM (active)
AC50 [3]: 4.14 µM (active)
AC50 [4]: 5.51 µM (active)
AC50 (Cytochrome P450 2D6): 20 µM (inconclusive)

CC(=O)CCc1ccc(OC(=O)c2cccnc2)cc1
EC50 [6]: > 79.4 µM (not active)
EC50 [7]: > 79.4 µM (not active)
EC50 [8]: > 79.4 µM (not active)

COc1ccc(C(=O)Nc2cc(C)c3c(=O)oc4ccccc4c3n2)cc1
EC50 [6]: 82.8 µM (not active)
EC50 [7]: > 79.4 µM (not active)
EC50 [8]: > 79.4 µM (not active)

CCCCN(CCCC)CCC(O)c1cc2c(Cl)cc(Cl)cc2c2cc(C(F)(F)F)ccc12 (centres undefined) [HALOFANTRINE HYDROCHLORIDE]
CC50 [12]: > 40 µM (active)
AC50 [13]: 6.51 µM (active)
IC50 [9]: > 20 µM (inactive)
AC50 [14]: 7.27 µM (active)
AC50 (Cytochrome P450 1A2): 20 µM (inconclusive)

C=CCc1ccc(O)c(-c2ccc(O)c(CC=C)c2)c1 [HONOKIOL]
IC50 [5]: 12 µM (active)

CC1(C)C(/C=C/C=C/C=C/C=C2\N(CCCCS(=O)(=O)O)c3ccc4ccccc4c3C2(C)C)=[N+](CCCCS(=O)(=O)[O-])c2ccc3ccccc3c21 [INDOCYANINE GREEN]
IC50 (Large T antigen): 2.1 µM (active)
IC50 (Nonstructural protein 1): 2.7 µM (active)
IC50 [15]: > 47.1 µM (inactive)
EC50 [16]: > 53 µM (inactive)
